One assay concerns the target protein kinase C γ (Homo sapiens, UniProt P05129). Briefly: protein kinase C γ assay. In kind it is biochemical. Conditions: 15 μM ATP. On the procedure:
Kinases activities were assayed in Buffer A or C (unless otherwise stated), at 30° C., at a final ATP concentration of 15 μM. Blank values were subtracted and activities calculated as pmoles of phosphate incorporated for a 10 min. incubation (usually expressed in % of the maximal activity, i.e. without inhibitors). Controls were performed with appropriate dilutions of Me2SO. In some cases phosphorylation of the substrate was assessed by autoradiography after SDS-PAGE. IC50 values were estimated from the dose-response curves. • CDK1/cyclin B was extracted in homogenisation buffer from M phase starfish (Marthasterias glacialis) oocytes and purified by affinity chromatography on p9^CKShs1-Sepharose beads, from which it was eluted by free p9^CKShs1 as described. The kinase activity was assayed in buffer C, with 1 mg histone H1/ml, in the presence of 15 μM [γ-^32P] ATP (3,000 Ci/mmol; 1 mCi/ml) in a final volume of 30 μl. After 10 min. incubation at 30° C., 25 μl aliquots of supernatant were spotted onto 2.5×3 cm pieces of Whatman P81 phosphocellulose paper, and, 20 sec. later, the filters were washed five times (for at least 5 min. each time) in a solution of 10 ml phosphoric acid/liter of water. The wet filters were counted in the presence of 1 ml ACS (Amersham) scintillation fluid. • GSK-3β was either purified from rabbit muscle or expressed in and purified from insect Sf9 cells. […]

In a further assay the target is CDK5/p35 (Rattus norvegicus, UniProt Q03114). The assay is described as follows: In vivo Pak1 phosphorylation in cultured E18 cortical neurones. In kind it is cell-based. Also on record: endogenous in cells; host or cells: primary cortical neurones from E18 rat embryos. To be noted: 1 hour exposure. The method, then:
HD was added onto cultured neurones obtained from E18 rat embryo cortices when the cultures were 4 days old. As a control DMSO was used to the maximal volume of drug used (7.5 μl). The drug was left on the cells for 1 hour. The cells were then lysed on ice in STM buffer and the membrane fraction isolated with STM containing 0.5% NP-40 [17].
Pak1 immunoprecipitations were carried out using a specific polyclonal antibody, followed by kinase assays using histone H4 as a a substrate. The amount of H4 phosphorylation, reflecting the level of Pak1 activity, was determined by measuring the intensity of the bands on autoradiography film and quantitating with NIH imaging program.
As loading controls Pak1 and p35 western blots were made. The latter protein increases in amount with the level of CDK5/p35 kinase inhibition.

The target of a further assay is CDK1/cyclin B. The assay is described as follows: CDK1/cyclin B kinetic experiments varying ATP and HD. In kind it is biochemical, starfish (Marthasterias glacialis). The method, then:
Blank values were subtracted and activities calculated as pmoles of phosphate incorporated for a 10 min. incubation (usually expressed in % of the maximal activity, i.e. without inhibitors). Controls were performed with appropriate dilutions of Me2SO. In some cases phosphorylation of the substrate was assessed by autoradiography after SDS-PAGE. IC50 values were estimated from the dose-response curves. • CDK1/cyclin B was extracted in homogenisation buffer from M phase starfish (Marthasterias glacialis) oocytes and purified by affinity chromatography on p9^CKShs1-Sepharose beads, from which it was eluted by free p9^CKShs1 as described. […] ATP (3,000 Ci/mmol; 1 mCi/ml) in a final volume of 30 μl. After 10 min. incubation at 30° C., 25 μl aliquots of supernatant were spotted onto 2.5×3 cm pieces of Whatman P81 phosphocellulose paper, and, 20 sec. later, the filters were washed five times (for at least 5 min. each time) in a solution of 10 ml phosphoric acid/liter of water. The wet filters were counted in the presence of 1 ml ACS (Amersham) scintillation fluid. • GSK-3β was either purified from rabbit muscle or expressed in and purified from insect Sf9 cells. […] ATP (3,000 Ci/mmol; 1 mCi/ml) in a final volume of 30 μl. […]

Chain of CDK5/p35 (Q03114 whole entry): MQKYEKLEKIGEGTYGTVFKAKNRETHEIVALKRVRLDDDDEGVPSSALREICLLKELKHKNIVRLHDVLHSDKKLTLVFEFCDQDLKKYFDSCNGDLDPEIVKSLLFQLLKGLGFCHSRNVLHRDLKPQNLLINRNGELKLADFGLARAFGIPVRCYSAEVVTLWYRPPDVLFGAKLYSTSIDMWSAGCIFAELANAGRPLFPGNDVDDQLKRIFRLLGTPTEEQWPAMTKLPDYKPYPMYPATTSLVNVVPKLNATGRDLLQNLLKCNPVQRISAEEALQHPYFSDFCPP
Chain of CDK5/p35 (P61810 2-307 partner limits assumed): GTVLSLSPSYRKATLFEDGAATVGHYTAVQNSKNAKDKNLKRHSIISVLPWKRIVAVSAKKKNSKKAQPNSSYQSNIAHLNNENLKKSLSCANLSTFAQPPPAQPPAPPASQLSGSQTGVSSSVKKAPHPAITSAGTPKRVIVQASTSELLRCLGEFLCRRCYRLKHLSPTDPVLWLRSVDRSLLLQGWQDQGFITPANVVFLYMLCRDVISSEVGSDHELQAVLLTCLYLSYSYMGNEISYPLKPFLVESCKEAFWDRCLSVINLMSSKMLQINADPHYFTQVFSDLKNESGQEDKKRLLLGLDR

A word on the IC50: it is the concentration at which inhibition is half-maximal. Lower therefore signals greater potency in that assay. For `NC1=NC(=O)C(=C2CCNC(=O)c3[nH]c(Br)cc32)N1` [hymenialdisine, 4-(2-amino-4-oxo-2-imidazolin-5-ylidene)-2-bromo-4,5,6,7-tetrahydropyrrolo (2,3-c) azepine-8-one], the IC50 against protein kinase C γ was determined as 500 nM. Besides, on CDK5/p35, the “Pak1 activity (H4 phosphorylation) in neurons” value was “increase in Pak1 activity”. Also, on CDK1/cyclin B (ATP 0.05 to 0.25 mM, histone H1 0.7 mg/ml, read-out: apparent inhibition constant (Ki)), the Ki came out at 50 nM. Besides, in the assay on CDK1/cyclin B (double-reciprocal plots), the mechanism of inhibition result is on record as “competitive inhibitor for ATP”.

(Values after patent US7098204B2 (C.N.R.S., priority 1999, dated 2006).)
